The text below walks through data of patent US4588727A, “Intermediates for pyrrolo[1,2-b][1,2,5]triazepines” (Hoechst-Roussel Pharmaceuticals Inc., priority 1985, dated 1986).

For experiment [1], the system named is mice. The experiment is described as follows: 2-phenyl-1,4-benzoquinone-induced writhing test in mice (PQW, analgesia). Format: in vivo. Conditions: Mus musculus, sc, read-out: PQW (% decrease). The text has this: Compounds I and II of the present invention are useful as analgesic agents due to their ability to alleviate pain in mammals. […] Exptl. Biol. Med., 95, 729 (1957)].
In general terms: In writhing tests, fewer writhes than in controls are read as antinociception.

Experiment [2] deals with rats. The experiment is described as follows: Geller-conflict paradigm with rats (anxiolytic). In kind it is in vivo. Conditions: i.p., CRF-conflict responding versus previous day's control trial. The source says: Compounds I and II of the present invention are useful as anxiolytic agents. […] See Geller, Irving and Seifter, Psychopharmacologia Vol. 1, 482-492 (1962). Male rats are used as test subjects. They are housed individually and food and water are available ad libitum until they are 300 to 400 grams prior to the start of training. Subsequently they are food deprived until their body weight is reduced to approximately 80% of original and it is maintained at this level by a restricted food diet.
The programming and test equipment consists of solid state devices, shockers and cages within sound-attenuated environmental enclosures. The data is recorded on both solid state print-out counters and cumulative recorders. The cages are equipped with a houselight, a single-lever, cue-lights, a liquid dipper, a speaker and a grid-floor connected to a shocker. Sweetened condensed milk delivered by the liquid-dipper serve as the positive reinforcement for all subjects.
The subjects are trained to lever-press for the milk reward in two distinct response-reward sections. In the anxiety or "conflict" segment, signaled by onset of both tone and cue-lights, a dipper of milk is delivered in response to each lever-press (CRF schedule of reinforcement). However lever presses during this period are also accompanied by a 40 m sec pulse of aversive footshock through the grid-floor. This creates a "conflict between (1) easy access to milk reward and (2) the simultaneous presentation of a painful foot-shock. This "conflict" period is 3 minutes in duration.
During the other segment of this paradigm, the lever presses produces a dipper of milk only at variable intervals of time from 60 to 210 seconds with an average reward of once per 2 minutes (VI-2 min.). No shocks are ever administered during this VI phase of testing which is 15 minutes in duration.
The test procedure consists of four 15 minute (non-shock) VI segments where reinforcement was available on a limited basis. Each VI period is followed by a 3 minute "CRF"-conflict phase when reinforcement is constantly available but always accompanied by an aversive foot-shock. The shock-level is titrated for each subject to reduce the CRF responding to a total of less than 10 lever-presses during the entire test. The rats are tested four days a week. Drugs are administered on the third day and the performance is compared to the previous days control trial. The VI responses are used to evaluate any general debilitating drug effects, while the CRF responses are used to evaluate any "anti-anxiety" effects as indicated by increased responding during the "CRF-conflict" period.
All test compounds are administered by intraperitoneal injection in volumes of 10 cc/kg and the pretreat interval is usually one-half hour.

For experiment [3], the system named is mice. The experiment is described as follows: supramaximal electroshock assay (SES, anticonvulsant). In kind it is in vivo. Conditions: Mus musculus, ip, male mice, at peak activity time. The method, then:
Compounds I and II of the present invention are useful as anticonvulsant agents. […] Groups of male mice (18-30 grams) are used. Drugs are prepared using distilled water and if insoluble, a surfactant is added. Control animals receive vehicle. Drugs are routinely administered intraperitoneally. The dosage volume is 10 ml/kg.
The animal's eyes are placed across the output terminals of an A.C. shocker that delivers 206 volts rms for 300 milliseconds. Electrode paste coats the animal's eyes at the point of contact with the terminals.
Protection is expressed as normalized percent inhibition relative to vehicle control. [formula]
A time response is carried out using 6 animals per group. Animals are tested at 30, 60 and 120 minutes postdrug. Additional time periods are tested if indicated by previous tests.
When the peak activity time has been determined, a dose response is initiated, using 10 animals per group at that time period. The ED50 and 95% confidence interval are calculated by computerized probit analysis.
In general terms: Protection in the maximal electroshock model is a classic sign of anticonvulsant action.

For experiment [4], the target named is benzodiazepine recognition sites. The experiment is described as follows: benzodiazepine (Bz) binding, rat cerebral cortex membrane preparation. Conditions: rat cortex membranes, 2 nM radioactive benzodiazepine, pH 6.9, 20 minutes at 0-4° C. The text has this:
This assay is used to determine potential anxiolytic or anticonvulsant activity via direct interaction with benzodiazepine recognition sites in a membrane preparation obtained from rat brain.
Benzodiazepine is a widely prescribed phychoactive agent. It has various pharmacological properties, including anti-anxiety, anticonvulsant, muscle relaxant and hypnotic effects. The relationships between the pharmacological activities of this compound and the GABA receptor-chlorideionophore complex have been studied in the past. The values of IC50 listed in Table II were determined in the following manner. See Squires and Braestrup, "Benzodiazepine Receptors in Rat Brain", Nature, 266, 732-734 (1977). […]
a. 78.1 g of Tris-HCl q.s. to 1 liter b. 60.6 g of Tris-base q.s to 1 liter c. Adjust pH of Tris HCl to 6.9 at 25° C. by adding Tris base to obtain 0.5M Tris buffer, pH 6.9. d. Make a 1:10 dilution with distilled H2 O to obtain 0.05M Tris buffer, pH 6.9 2. 0.32M sucrose: 21.9 g of sucrose q.s. to 200 ml
3. Radioactive benzodiazepine: this marker compound is made up to a concentration of 80 nM and 50 μl of the solution is added to each tube, which yields a final concentration of 2 nM in the assay.
4. Test Compounds: 1 mM stock solution is made up in a suitable vehicle and serially diluted, such that the final concentration in the assay ranges from 10^-5 to 10^-8 M.
Male Wistar rats are decapitated and the brain rapidly removed. The cerebral cortices are removed, weighed and homogenized with a homogenizer in 20 volumes of ice-cold 0.32M sucrose. This homogenate is contrifuged at 1,000 g for 10 minutes, the pellet is discarded and the supernatant is recentrifuged at 30,000 g for 20 minutes. The resulting membrane pellet is resuspended in 40 volumes of 0.05M Tris buffer, pH 6.9.
1 ml 0.05M Tris buffer, pH 6.9
70 μl 0.5M Tris buffer, pH 6.9
50 μl radioactive benzodiazepine solution
20 μl vehicle or a solution containing an appropriate concentration of test drug 300 μl tissue suspension prepared above
A tube containing the […] listed above is incubated at 0°-4° C. in an ice bath. A 300 μl aliquot of the tissue suspension is added to the tube and the sample is then incubated for 20 minutes at 0°-4° C. and thereafter vacuum-filtered using a suitable filter. The filter is immediately rinsed with three 5 ml washes of ice-cold Tris buffer, pH 6.9. The radioactivity of the filter is counted in 10 ml of a counting cocktail. The value of the radioactive counting obtained for a sample containing a test drug is compared to the counting obtained for the sample not containing the test drug and the ratio between the two computed. The IC50 value for a given test drug is defined as that concentration of the test drug at which said ratio becomes 50% (IC stands for inhibitory concentration).

Where a name gives a salt, the structure may show the parent alone.

In general, ED50 refers to the midpoint of the dose-response relation. A low value points to an effect at a small dose. By IC50 is commonly meant the point on the concentration scale where inhibition reaches its midpoint.

For `CN(C(=O)CN)n1cccc1C(=O)c1ccccc1Cl` [1-(N-Methyl-aminoacetamido)-2-(2-chlorobenzoyl)pyrrole hydrobromide], the inhibition in vivo at 20 mg/kg in experiment [1] was determined as 42%. Turning to `Br.CN(C(=O)CN)n1cccc1C(=O)c1ccccc1F` [1-(N-Methyl-aminoacetamido)-2-(2-fluorobenzoyl)pyrrole hydrobromide], the “Geller dose/CRF: CRF” value in experiment [2] (dose 40 mg/kg) is 11.2. In experiment [3], this compound had an ED50 of 8.2 mg/kg. In addition, the half-inhibitory concentration (IC50) in experiment [4] was less than 10000 nM. Regarding `NCC(=O)Nn1cccc1C(=O)c1ccccc1` [1-Aminoacetamido-2-benzoylpyrrole hydrochloride], the inhibition in vivo at 20 mg/kg in experiment [1] came to 23%. With `Br.CN1C(=O)CN=C(c2ccccc2)c2cccn21` [1-Methyl-5-phenyl-1H-pyrrolo[1,2-b][1,2,5]triazepin-2(3H)-one hydrobromide], the inhibition in vivo at 20 mg/kg in experiment [1] was found to be 26%. Also, the “Geller dose/CRF: CRF” value in experiment [2] (dose 40 mg/kg) was determined as 22.6. In addition, the IC50 in experiment [4] came out at 340 nM.

Take `O=C(CNC(=O)OCc1ccccc1)Nn1cccc1C(=O)c1ccccc1` [1-[(Carbobenzyloxyamino)acetamido]-2-benzoylpyrrole]: the inhibition in vivo at 20 mg/kg in experiment [1] was 50%. The same measure, in the same setting: then `CC(C)(C)OC(=O)NCC(=O)Nn1cccc1C(=O)c1ccccc1Cl` [1-[(t-Butoxycarbonylamino)acetamido]-2-(2-chlorobenzoyl)pyrrole], with 49%.

Regarding `CC(C)(C)OC(=O)NCC(=O)Nn1cccc1C(=O)c1ccccc1F` [1-[(t-Butoxycarbonylamino)acetamido]-2-(2-fluorobenzoyl)pyrrole], in experiment [1], the inhibition in vivo at 20 mg/kg amounted to 21%. Same read-out and setting: the result for `CN(C(=O)CNC(=O)OC(C)(C)C)n1cccc1C(=O)c1ccccc1Cl` [1-[N-Methyl-(t-butoxycarbonylamino)acetamido]-2-(2-chlorobenzoyl)pyrrole] reads 47%.

Regarding `CN1C(=O)CN=C(c2ccccc2Cl)c2cccn21` [5-(2-Chlorophenyl)-1-methyl-1H-pyrrolo[1,2-b][1,2,5]triazepin-2(3H)-one], the inhibition in vivo at 20 mg/kg in experiment [1] came to 36%. The “Geller dose/CRF: CRF” value in experiment [2] (dose 40 mg/kg) is 1.4. Also, the ED50 in experiment [3] stood at 17.9 mg/kg. In addition, the IC50 in experiment [4] is 22.7 nM. As to `O=C1CN=C(c2ccccc2Cl)c2cccn2N1` [5-(2-Chlorophenyl)-1H-pyrrolo[1,2-b][1,2,5]triazepin-2(3H)-one], the “Geller dose/CRF: CRF” value in experiment [2] (dose 60 mg/kg) is 15. The IC50 in experiment [4] stood at 204 nM. Take `CN1C(=O)CN=C(c2ccccc2F)c2cccn21.Cl` [5-(2-Fluorophenyl)-1-methyl-1H-pyrrolo[1,2-b][1,2,5]triazepin-2(3H)-one hydrochloride]: the inhibition in vivo at 20 mg/kg in experiment [1] amounted to 27%. In addition, the ED50 in experiment [3] was 43.6 mg/kg. The IC50 in experiment [4] was 62.1 nM.

Regarding `O=C1CN=C(c2ccccc2F)c2cccn2N1` [5-(2-Fluorophenyl)-1H-pyrrolo[1,2-b][1,2,5]triazepin-2(3H)-one], the “Geller dose/CRF: CRF” value in experiment [2] (dose 40 mg/kg) worked out at 2.4. Further, in experiment [4], the half-inhibitory concentration (IC50) amounted to 586 nM. Consider `O=C1CN=C(c2ccccc2)c2cccn2N1` [5-Phenyl-1H-pyrrolo[1,2-b][1,2,5]triazepin-2(3H)-one], for which the inhibition in vivo at 20 mg/kg in experiment [1] was determined as 31%. Further, the concentration for half-maximal inhibition (IC50) in experiment [4] is 6730 nM. `CN1C(=O)CN=C(c2ccccc2F)c2ccc(Cl)n21.Cl` [8-Chloro-5-(2-fluorophenyl)-1-methyl-1H-pyrrolo[1,2-b][1,2,5]triazepin-2(3H)-one hydrochloride]: the inhibition in vivo at 20 mg/kg in experiment [1] was determined as 19%. Moreover, the 50% effect level in experiment [3] (ED50) was put at a dose of 36.1 mg/kg. Also, in experiment [4], the half-inhibitory concentration (IC50) came to 699 nM. Turning to `Cc1ccc(C(=O)c2ccccc2F)n1NC(=O)CNCC(=O)Nn1c(C)ccc1C(=O)c1ccccc1F` [Di-[(2-(2-fluorobenzoyl)-5-methyl-1H-pyrrol-1-yl)-2-acetamido]amine hydrochloride], in experiment [1], the inhibition in vivo at 20 mg/kg is 68%.

For `CN(C)CCNn1cccc1C(=O)c1ccccc1Cl` [[2-(2-Chlorobenzoyl)-1H-pyrrol-1-yl]-2-(dimethylamino)ethylamine hydrobromide], the inhibition in vivo at 20 mg/kg in experiment [1] stood at 72%. On to `CCOC(=O)N(CCN(C)C)n1cccc1C(=O)c1ccccc1Cl` [[2-(2-Chlorobenzoyl)-1H-pyrrol-1-yl]-2-[(dimethylamino)ethyl]carbamic acid, ethyl ester hydrobromide], for which, in experiment [1], the inhibition in vivo at 20 mg/kg amounted to 41%.
